Source: patent US20080286752A1, “Methods for the production of HCV, assaying HCV entry, and screening drugs and cellular receptors for HCV” (priority 2005, published 2008)

Assays:
HCV pseudoparticles = conditions: reports; cited from earlier work
[1] = molecular target: T1, HCV E1 and E2 proteins (C22E1E2, genotype 1a) (Hepatitis C virus genotype 1a, UniProt P27958, H297R/K360A/N321D/N391S/R602W/V212I/Y589H); type: cell-based
T1 construct: residues 24-215 are E1, and residues 216-577 are E2; expressed in transfected cells; host or cells: 293T effector cells transfected with pcDNA3.1-HE1E2, co-cultured with Huh-7.5 target cells

**Q.** Which results are given for SAYQVRNSSGLYHVTNDC?
**A.** inhibition of transduction with pseudoparticles (HCV pseudoparticles): does not; effect on HCV E1E2 mediated fusion ([1]; peptide added to cells for an hour before fusion, concentrations up to 10 mM): little effect

**Q.** For SSGLYHVTNDCPNSSIVY, which “inhibition of transduction with pseudoparticles” value (HCV pseudoparticles) is on record?
**A.** inhibits

**Q.** What about the “inhibition of HCV E1E2 mediated fusion” value ([1]; peptide added to cells at concentrations of 10 nM or above for an hour before fusion) of the same sequence?
**A.** ~40%
